Results reported in ChEMBL document CHEMBL1268964, “CWJ-081, a novel 3-arylisoquinoline derivative, induces apoptosis in human leukemia HL-60 cells partially involves reactive oxygen species through c-Jun NH2-terminal kinase pathway” (Bioorg Med Chem Lett, 2010).
The source made the active and inactive calls. The calls are words filed in the database; no cut-off is given here.

Legend:
HL-60 [1] = assay: Induction of apoptosis in human HL60 cells assessed as procaspase 9 cleavage at 10 uM after 36 hrs by Western blot analysis; assay type: functional, cell-based
HL-60 [2] = assay: Induction of apoptosis in human HL60 cells in presence of 10 uM SP600125 JNK inhibitor; assay type: functional, cell-based
HL-60 [3] = assay: Induction of apoptosis in human HL60 cells assessed as procaspase 8 cleavage at 10 uM after 36 hrs by Western blot analysis; assay type: functional, cell-based
[4] = Cytotoxicity against human Chang cells by MTT assay; assay type: cell-based
HL-60 [5] = assay: Induction of apoptosis in human HL60 cells assessed as Bcl-2 protein expression at 10 uM after 12 hrs by Western blot analysis; assay type: functional, cell-based
U-937 [6] = assay: Induction of apoptosis in human U937 cells assessed as early apoptotic cells at 10 uM by Annexin V staining; assay type: functional, cell-based; conditions: TDE = time-dependent effect
HL-60 [7] = assay: Induction of apoptosis in human HL60 cells assessed as cytochrome c release from mitochondria at 10 uM after 12 hrs by Western blot analysis; assay type: functional, cell-based
K562 [8] = assay: Induction of apoptosis in human K562 cells assessed as intercucleosomal DNA fragmentation at 10 uM by […] staining by flow cytometry; assay type: functional, cell-based; conditions: TDE = time-dependent effect
HL-60 [9] = assay: Cytotoxicity against human HL60 cells by MTT assay; assay type: functional, cell-based
HL-60 [10] = assay: Induction of apoptosis in human HL60 cells assessed as cytochrome c release from mitochondria at 10 uM after 24 hrs by Western blot analysis; assay type: functional, cell-based
HL-60 [11] = assay: Induction of apoptosis in human HL60 cells assessed as PARP-1 at 10 uM after 36 hrs by Western blot analysis; assay type: functional, cell-based
HL-60 [12] = assay: Induction of apoptosis in human HL60 cells assessed as increase in JNK phosphorylation level at 6 hrs; assay type: functional, cell-based
HeLa = assay: Cytotoxicity against human HeLa cells by MTT assay; assay type: functional, cell-based
HL-60 [13] = assay: Induction of apoptosis in human HL60 cells assessed as procaspase 3 cleavage at 10 uM after 36 hrs by Western blot analysis; assay type: functional, cell-based
HL-60 [14] = assay: Induction of apoptosis in NAC pretreated human HL60 cells assessed as increase in JNK phosphorylation level; assay type: functional, cell-based
HL-60 [15] = assay: Induction of apoptosis in NAC pretreated human HL60 cells assessed as increase in ROS production; assay type: functional, cell-based
U-937 [16] = assay: Cytotoxicity against human U937 cells by MTT assay; assay type: functional, cell-based
HL-60 [17] = assay: Induction of apoptosis in human HL60 cells assessed as loss of mitochondrial membrane potential at 50 uM after 24 hrs by DiOC6 staining; assay type: functional, cell-based
HL-60 [18] = assay: Induction of apoptosis in human HL60 cells assessed as increase in ROS production in presence of 10 mM NAC; assay type: functional, cell-based
U-937 [19] = assay: Induction of apoptosis in human U937 cells assessed as intercucleosomal DNA fragmentation at 10 uM by […] staining by flow cytometry; assay type: functional, cell-based; conditions: TDE = time-dependent effect
HL-60 [20] = assay: Induction of apoptosis in human HL60 cells assessed as increase in JNK phosphorylation level at 12 hrs; assay type: functional, cell-based
HL-60 [21] = assay: Induction of apoptosis in human HL60 cells assessed as Bax protein expression at 10 uM after 12 hrs by Western blot analysis; assay type: functional, cell-based
[22] = Cytotoxicity against human IOSE-80PC cells by MTT assay; assay type: cell-based
K562 [23] = assay: Cytotoxicity against human K562 cells by MTT assay; assay type: functional, cell-based
HL-60 [24] = assay: Induction of apoptosis in human HL60 cells assessed as Bcl-2 family expression at 10 uM by Western blot analysis; assay type: functional, cell-based; conditions: TDE = time-dependent effect
HL-60 [25] = assay: Induction of apoptosis in human HL60 cells assessed as early apoptotic cells at 10 uM by Annexin V staining; assay type: functional, cell-based; conditions: TDE = time-dependent effect
[26] = Cytotoxicity against human L-132 cells by MTT assay; assay type: cell-based; conditions: L132
Ca-Ski = assay: Cytotoxicity against human CaSki cells by MTT assay; assay type: functional, cell-based
K562 [27] = assay: Induction of apoptosis in human K562 cells assessed as early apoptotic cells at 10 uM by Annexin V staining; assay type: functional, cell-based; conditions: TDE = time-dependent effect
HL-60 [28] = assay: Induction of apoptosis in human HL60 cells assessed as increase in ROS production; assay type: functional, cell-based; conditions: TDE = time-dependent effect
HL-60 [29] = assay: Induction of apoptosis in human HL60 cells assessed as intercucleosomal DNA fragmentation at 10 uM by […] staining by flow cytometry; assay type: functional, cell-based; conditions: TDE = time-dependent effect

CCc1cc2c(cc1-c1cc3ccc(OC)c(OC)c3c(=O)n1C)OCO2
Activity (HL-60 [1]): Active | Activity (HL-60 [2]): Active | Activity (HL-60 [3]): Active | IC50 [4]: 39.9 µM | Activity (HL-60 [5]): Active | Activity (U-937 [6]): tde | Activity (HL-60 [7]): Active | Activity (K562 [8]): tde | IC50 (HL-60 [9]): 5.62 µM | Activity (HL-60 [10]): Active | Activity (HL-60 [11]): Active | Activity (HL-60 [12]): Active | IC50 (HeLa): 42.2 µM | Activity (HL-60 [13]): Active | Activity (HL-60 [14]): inactive | Activity (HL-60 [15]): inactive | IC50 (U-937 [16]): 33.2 µM | Activity (HL-60 [17]): Active | Activity (HL-60 [18]): inactive | Activity (U-937 [19]): tde | Activity (HL-60 [20]): inactive | Activity (HL-60 [21]): Active | IC50 [22]: 68 µM | IC50 (K562 [23]): 38.1 µM | Activity (HL-60 [24]): tde | Activity (HL-60 [25]): tde | IC50 [26]: 59.4 µM | IC50 (Ca-Ski): 47.3 µM | Activity (K562 [27]): tde | Activity (HL-60 [28]): tde | Activity (HL-60 [29]): tde
